Measured values: ChEMBL document CHEMBL5724914, “Linking interpersonal differences in gut microbiota composition and drug biotransformation activity” (2024)

Key:
[1] = (§1) The drug is tested on Z-002 corresponding to rabbit gut metagenome with ENA study accession number: PRJEB37062 and ENA sample accession number: ERS12561802 for biotransformation under anaerobic condition. The drug concentrations were measured over 9 timepoints collected between 0 and 24 hours of incubation by liquid-chromatography-coupled mass spectrometry (LC–MS); details: 2 µM
[2] = as §1, with “Z-018” for “Z-002”, “pig” for “rabbit”, “ERS12561817” for “ERS12561802”; details: 2 µM
[3] = human gut metagenome, 24 h, 2 µM
[4] = as §1, with “Z-012” for “Z-002”, “to” for “to rabbit gut”, “ERS12561812” for “ERS12561802”; details: 2 µM
[5] = as §1, with “WLS-370” for “Z-002”, “human” for “rabbit”, “ERS12561793” for “ERS12561802”; details: 2 µM
[6] = as §1, with “WLS-038” for “Z-002”, “human” for “rabbit”, “ERS12561745” for “ERS12561802”; details: 2 µM
[7] = as §1, with “WLS-350” for “Z-002”, “human” for “rabbit”, “ERS12561789” for “ERS12561802”; details: 2 µM
[8] = human gut metagenome, 24 h, 2 µM; remark: listed apart in the source
[9] = human gut metagenome, 24 h, 2 µM; remark: listed apart in the source
[10] = as §1, with “Z-013” for “Z-002”, “ERS12561813” for “ERS12561802”; details: 2 µM
[11] = human gut metagenome, 24 h, 2 µM; remark: listed apart in the source
[12] = as §1, with “WLS-098” for “Z-002”, “human” for “rabbit”, “ERS12561754” for “ERS12561802”; details: 2 µM
[13] = as §1, with “WLS-082” for “Z-002”, “human” for “rabbit”, “ERS12561751” for “ERS12561802”; details: 2 µM
[14] = human gut metagenome, 24 h, 2 µM; remark: listed apart in the source
[15] = human gut metagenome, 24 h, 2 µM; remark: listed apart in the source
[16] = human gut metagenome, 24 h, 2 µM; remark: listed apart in the source
[17] = as §1, with “Z-010” for “Z-002”, “to” for “to rabbit gut”, “ERS12561810” for “ERS12561802”; details: 2 µM
[18] = as §1, with “WLS-240” for “Z-002”, “human” for “rabbit”, “ERS12561773” for “ERS12561802”; details: 2 µM
[19] = as §1, with “Z-028” for “Z-002”, “mouse” for “rabbit”, “ERS12561827” for “ERS12561802”; details: 2 µM
Also: call rule not given here.

Row | SMILES | Bacterial Biotransformation [1] | Bacterial Biotransformation [2] | Bacterial Biotransformation [3] | Bacterial Biotransformation [4] | Bacterial Biotransformation [5] | Bacterial Biotransformation [6] | Bacterial Biotransformation [7] | Bacterial Biotransformation [8] | Bacterial Biotransformation [9] | Bacterial Biotransformation [10] | Bacterial Biotransformation [11] | Bacterial Biotransformation [12] | Bacterial Biotransformation [13] | Bacterial Biotransformation [14] | Bacterial Biotransformation [15] | Bacterial Biotransformation [16] | Bacterial Biotransformation [17] | Bacterial Biotransformation [18] | Bacterial Biotransformation [19]
1 | CCC1(c2ccc(N)cc2)CCC(=O)NC1=O (configuration not stated) [AMINOGLUTETHIMIDE] | Compound NOT metabolized | Compound metabolized | Compound NOT metabolized | Compound NOT metabolized | Compound NOT metabolized | Compound NOT metabolized | Compound NOT metabolized | Compound NOT metabolized | Compound NOT metabolized | Compound NOT metabolized | Compound NOT metabolized | Compound NOT metabolized | Compound NOT metabolized | Compound NOT metabolized | Compound NOT metabolized | Compound NOT metabolized | Compound NOT metabolized | Compound NOT metabolized | –
2 | OC(CCN1CCCCC1)(c1ccccc1)C1CC2C=CC1C2 (configuration not stated) [BIPERIDEN] | – | – | Compound NOT metabolized | – | Compound metabolized | Compound NOT metabolized | Compound NOT metabolized | Compound NOT metabolized | Compound NOT metabolized | – | Compound NOT metabolized | Compound metabolized | Compound NOT metabolized | Compound metabolized | Compound metabolized | Compound NOT metabolized | – | Compound NOT metabolized | –
3 | CN1C(=O)CCS(=O)(=O)C1c1ccc(Cl)cc1 (configuration not stated) [CHLORMEZANONE] | Compound NOT metabolized | Compound NOT metabolized | Compound NOT metabolized | Compound NOT metabolized | Compound NOT metabolized | Compound NOT metabolized | Compound NOT metabolized | Compound NOT metabolized | Compound NOT metabolized | Compound NOT metabolized | Compound NOT metabolized | Compound NOT metabolized | Compound NOT metabolized | Compound NOT metabolized | Compound metabolized | Compound NOT metabolized | Compound NOT metabolized | Compound metabolized | Compound NOT metabolized
4 | CC(=O)O[C@]1(C(C)=O)CC[C@H]2[C@@H]3C=C(Cl)C4=CC(=O)[C@@H]5C[C@@H]5[C@]4(C)[C@H]3CC[C@@]21C [CYPROTERONE ACETATE] | Compound metabolized | – | Compound metabolized | – | Compound metabolized | Compound metabolized | Compound metabolized | Compound metabolized | Compound metabolized | – | Compound metabolized | Compound metabolized | Compound NOT metabolized | Compound metabolized | Compound metabolized | Compound metabolized | Compound metabolized | Compound metabolized | –
5 | CN1C[C@H](C(=O)N[C@]2(C)O[C@@]3(O)[C@@H]4CCCN4C(=O)[C@H](Cc4ccccc4)N3C2=O)C=C2c3cccc4[nH]cc(c34)C[C@H]21.CN1C[C@H](C(=O)N[C@]2(C)O[C@@]3(O)[C@@H]4CCCN4C(=O)[C@H](Cc4ccccc4)N3C2=O)C=C2c3cccc4[nH]cc(c34)C[C@H]21.O=C(O)C(O)C(O)C(=O)O [ERGOTAMINE TARTRATE] | – | – | Compound NOT metabolized | – | Compound metabolized | Compound NOT metabolized | Compound metabolized | Compound metabolized | Compound metabolized | – | Compound metabolized | Compound metabolized | – | Compound metabolized | – | Compound metabolized | – | Compound metabolized | –
6 | COC(=O)C1=C(C)NC(C)=C(C(=O)OC(C)C)C1c1cccc2nonc12 (configuration not stated) [ISRADIPINE] | Compound metabolized | – | Compound NOT metabolized | – | Compound metabolized | Compound NOT metabolized | Compound metabolized | Compound metabolized | Compound NOT metabolized | – | Compound metabolized | Compound metabolized | Compound metabolized | Compound metabolized | Compound metabolized | Compound metabolized | – | Compound metabolized | –
7 | CN(C(=O)CN(CCO)CC(=O)N(C)C(C)(C)Cc1ccccc1)C(C)(C)Cc1ccccc1 [OXETHAZAINE] | – | – | Compound NOT metabolized | – | Compound metabolized | Compound metabolized | Compound metabolized | Compound metabolized | Compound NOT metabolized | – | Compound metabolized | Compound metabolized | Compound metabolized | Compound metabolized | Compound metabolized | Compound metabolized | – | Compound metabolized | –
8 | Cc1nc2n(c(=O)c1CCN1CCC(c3noc4cc(F)ccc34)CC1)CCCC2O (configuration not stated) [PALIPERIDONE] | – | Compound NOT metabolized | Compound metabolized | – | Compound metabolized | Compound metabolized | Compound metabolized | Compound metabolized | Compound metabolized | Compound NOT metabolized | Compound metabolized | Compound metabolized | – | Compound metabolized | Compound metabolized | Compound metabolized | Compound NOT metabolized | Compound metabolized | –
9 | CN1CCN(CC/C=C2/c3ccccc3Sc3ccc(S(=O)(=O)N(C)C)cc32)CC1 [THIOTHIXENE] | – | – | Compound NOT metabolized | – | Compound metabolized | Compound metabolized | Compound metabolized | Compound metabolized | Compound metabolized | – | Compound metabolized | Compound metabolized | Compound metabolized | Compound metabolized | Compound metabolized | Compound metabolized | – | Compound metabolized | –
10 | Cc1ccc(/C(=C\CN2CCCC2)c2ccccn2)cc1 [TRIPROLIDINE] | Compound NOT metabolized | – | Compound NOT metabolized | Compound NOT metabolized | Compound NOT metabolized | Compound NOT metabolized | Compound NOT metabolized | Compound NOT metabolized | Compound NOT metabolized | Compound NOT metabolized | Compound metabolized | Compound NOT metabolized | Compound NOT metabolized | Compound metabolized | Compound NOT metabolized | Compound NOT metabolized | Compound NOT metabolized | Compound NOT metabolized | Compound NOT metabolized
11 | CS(=O)(=O)O.O.O.O.O=C1Cc2cc(CCN3CCN(c4nsc5ccccc45)CC3)c(Cl)cc2N1 [ZIPRASIDONE MESYLATE] | – | – | Compound metabolized | – | Compound NOT metabolized | Compound metabolized | Compound metabolized | Compound NOT metabolized | Compound NOT metabolized | – | Compound metabolized | Compound metabolized | Compound metabolized | Compound metabolized | Compound metabolized | Compound metabolized | – | Compound metabolized | –
